Reference: US11739098B2 (BRISTOL-MYERS SQUIBB COMPANY, priority 2017, dated 2023)

How the values were obtained:
Type in all cases: cell-based
human TLR8 = target: T1, human TLR8 (Homo sapiens, UniProt Q9NR97); experiment: TLR8 inhibition reporter assay (HEK-Blue cells, SEAP reporter, R848 stimulation); settings: HEK-Blue cells overexpressing human TLR8, SEAP reporter, R848 15.9 μM
T1 construct: host or cells: HEK-Blue cells (HEK293-derived reporter line)
T1 sequence (Q9NR97 27-1041): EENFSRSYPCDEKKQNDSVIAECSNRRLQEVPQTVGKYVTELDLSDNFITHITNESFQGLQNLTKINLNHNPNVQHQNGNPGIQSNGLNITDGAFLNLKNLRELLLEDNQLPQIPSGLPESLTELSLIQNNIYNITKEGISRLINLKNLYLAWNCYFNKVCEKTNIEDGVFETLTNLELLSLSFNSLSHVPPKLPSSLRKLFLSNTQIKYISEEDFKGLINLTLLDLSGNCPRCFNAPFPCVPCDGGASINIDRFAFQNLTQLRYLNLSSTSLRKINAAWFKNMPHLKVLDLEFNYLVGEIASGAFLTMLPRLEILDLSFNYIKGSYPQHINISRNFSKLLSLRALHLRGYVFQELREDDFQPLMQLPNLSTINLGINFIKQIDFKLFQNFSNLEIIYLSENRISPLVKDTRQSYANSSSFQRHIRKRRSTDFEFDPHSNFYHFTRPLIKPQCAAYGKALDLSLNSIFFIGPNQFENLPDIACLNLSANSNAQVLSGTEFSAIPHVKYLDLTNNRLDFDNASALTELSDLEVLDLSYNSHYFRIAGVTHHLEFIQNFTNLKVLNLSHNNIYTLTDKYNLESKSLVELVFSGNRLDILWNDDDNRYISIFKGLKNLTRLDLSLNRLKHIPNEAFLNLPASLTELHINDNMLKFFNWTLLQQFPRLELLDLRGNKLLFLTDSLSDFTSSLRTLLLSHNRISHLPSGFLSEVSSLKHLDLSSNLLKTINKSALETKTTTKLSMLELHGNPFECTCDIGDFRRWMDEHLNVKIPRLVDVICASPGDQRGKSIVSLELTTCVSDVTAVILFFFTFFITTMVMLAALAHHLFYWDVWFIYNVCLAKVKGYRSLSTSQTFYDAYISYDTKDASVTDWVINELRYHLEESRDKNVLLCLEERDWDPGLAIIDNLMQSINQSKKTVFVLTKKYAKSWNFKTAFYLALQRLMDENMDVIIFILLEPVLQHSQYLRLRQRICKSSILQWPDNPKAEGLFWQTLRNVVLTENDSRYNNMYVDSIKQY
In short: (§1)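 Agonists (final): TLR7 gardiquimod 7.5 μM; TLR8 R848 15.9 μM; TLR9 ODN2006 5 nM. HEK-Blue reporter cells, 30 min RT compound pre-incubation, 0.05 nM–50 μM dose range, 22 h at 37 °C, colorimetric SEAP detection medium. % inhibition relative to agonist+DMSO and known-inhibitor wells.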

human TLR7 = target: T2, human TLR7 (Homo sapiens, UniProt Q9NYK1); experiment: TLR7 inhibition reporter assay (HEK-Blue cells, SEAP reporter, gardiquimod stimulation); settings: HEK-Blue cells overexpressing human TLR7, SEAP reporter, gardiquimod 7.5 μM
T2 construct: host or cells: HEK-Blue cells (HEK293-derived reporter line)
T2 sequence (Q9NYK1 27-1049): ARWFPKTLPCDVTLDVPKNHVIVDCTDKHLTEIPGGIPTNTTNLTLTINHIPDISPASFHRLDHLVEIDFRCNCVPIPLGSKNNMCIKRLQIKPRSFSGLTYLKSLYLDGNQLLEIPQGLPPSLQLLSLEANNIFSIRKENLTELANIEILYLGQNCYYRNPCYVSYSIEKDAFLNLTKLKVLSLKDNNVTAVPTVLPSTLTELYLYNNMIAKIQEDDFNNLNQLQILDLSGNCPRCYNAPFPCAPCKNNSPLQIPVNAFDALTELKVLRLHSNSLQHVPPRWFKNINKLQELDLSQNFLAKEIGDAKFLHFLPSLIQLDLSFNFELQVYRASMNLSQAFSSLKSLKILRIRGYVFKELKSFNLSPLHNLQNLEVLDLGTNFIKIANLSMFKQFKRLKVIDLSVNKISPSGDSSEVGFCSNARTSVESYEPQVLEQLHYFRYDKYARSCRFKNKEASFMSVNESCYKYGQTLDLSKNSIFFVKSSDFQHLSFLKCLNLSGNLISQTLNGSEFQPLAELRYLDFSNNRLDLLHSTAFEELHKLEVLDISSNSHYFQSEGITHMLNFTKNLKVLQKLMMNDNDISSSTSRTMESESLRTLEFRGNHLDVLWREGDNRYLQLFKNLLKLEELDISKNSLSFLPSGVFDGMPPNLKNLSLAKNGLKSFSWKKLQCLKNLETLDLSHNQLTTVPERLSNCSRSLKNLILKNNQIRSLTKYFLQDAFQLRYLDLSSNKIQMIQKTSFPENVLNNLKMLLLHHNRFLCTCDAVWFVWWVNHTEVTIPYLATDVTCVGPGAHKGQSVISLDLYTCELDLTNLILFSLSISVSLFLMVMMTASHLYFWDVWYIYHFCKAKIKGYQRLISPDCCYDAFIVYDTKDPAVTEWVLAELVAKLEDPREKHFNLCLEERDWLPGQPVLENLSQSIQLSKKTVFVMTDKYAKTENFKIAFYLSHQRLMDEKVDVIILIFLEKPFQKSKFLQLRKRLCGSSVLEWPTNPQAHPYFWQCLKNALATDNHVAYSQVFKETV
In short: as §1

human TLR9 = target: T3, human TLR9 (Homo sapiens, UniProt Q9NR96); experiment: TLR9 inhibition reporter assay (HEK-Blue cells, SEAP reporter, ODN2006 stimulation); settings: HEK-Blue cells overexpressing human TLR9, SEAP reporter, ODN2006 5 nM
T3 construct: host or cells: HEK-Blue cells (HEK293-derived reporter line)
T3 sequence (Q9NR96 26-1032): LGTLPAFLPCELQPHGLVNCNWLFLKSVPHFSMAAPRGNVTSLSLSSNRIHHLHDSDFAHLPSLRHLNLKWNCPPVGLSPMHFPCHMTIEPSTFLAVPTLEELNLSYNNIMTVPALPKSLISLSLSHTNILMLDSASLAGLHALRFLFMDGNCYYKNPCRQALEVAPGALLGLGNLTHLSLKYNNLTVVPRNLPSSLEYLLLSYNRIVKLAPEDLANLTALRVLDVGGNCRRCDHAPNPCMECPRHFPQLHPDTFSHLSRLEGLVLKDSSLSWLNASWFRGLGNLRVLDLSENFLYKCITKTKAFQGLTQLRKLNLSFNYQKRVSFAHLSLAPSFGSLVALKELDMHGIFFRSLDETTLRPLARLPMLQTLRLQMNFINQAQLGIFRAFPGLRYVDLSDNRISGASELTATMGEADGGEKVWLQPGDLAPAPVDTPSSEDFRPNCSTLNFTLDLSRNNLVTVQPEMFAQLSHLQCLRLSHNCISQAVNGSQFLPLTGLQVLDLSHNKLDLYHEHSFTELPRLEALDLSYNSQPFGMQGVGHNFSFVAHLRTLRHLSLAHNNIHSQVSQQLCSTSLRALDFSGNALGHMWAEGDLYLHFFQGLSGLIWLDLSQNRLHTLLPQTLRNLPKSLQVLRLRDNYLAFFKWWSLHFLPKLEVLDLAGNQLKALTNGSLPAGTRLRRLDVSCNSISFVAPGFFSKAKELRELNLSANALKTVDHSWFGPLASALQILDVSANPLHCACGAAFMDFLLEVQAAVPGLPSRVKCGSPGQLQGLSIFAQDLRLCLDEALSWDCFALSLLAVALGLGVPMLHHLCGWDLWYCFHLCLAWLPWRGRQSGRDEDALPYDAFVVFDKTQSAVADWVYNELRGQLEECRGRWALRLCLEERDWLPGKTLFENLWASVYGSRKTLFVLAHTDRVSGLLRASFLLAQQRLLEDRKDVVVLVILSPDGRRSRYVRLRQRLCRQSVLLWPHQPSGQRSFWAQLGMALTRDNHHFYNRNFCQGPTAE
In short: as §1

| IC50 (human TLR8) [nM] | IC50 (human TLR7) [nM] | IC50 (human TLR9) [nM] | Compound |
| --- | --- | --- | --- |
| > 50000 | > 50000 | 1000 to 50000 | CCc1c(-c2cccc3c2cnn3C)[nH]c2ccc(C3CCN(C(=O)CN(C)C)CC3)cc12 [Example 520, 2-(dimethylamino)-1-(4-(3-ethyl-2-(1-methyl-1H-indazol-4-yl)-1H-indol-5-yl)piperidin-1-yl)ethan-1-one] |
| < 100 | 100 to 1000 | 100 to 1000 | CCc1c(-c2cnc3ncccn23)[nH]c2ccc(C3CCNCC3)cc12 [Example 29, 3-(3-ethyl-5-(piperidin-4-yl)-1H-indol-2-yl) imidazo[1,2-a]pyrimidine] |
| 100 to 1000 | 100 to 1000 | 100 to 1000 | FC(F)Cc1c(-c2ccc3nccn3c2)[nH]c2ccc(C3CCN(Cc4c[nH]cn4)CC3)cc12 [Example 941, 6-(5-(1-((1H-imidazol-4-yl)methyl)piperidin-4-yl)-3-(2,2-difluoroethyl)-1H-indol-2-yl)imidazo[1,2-a]pyridine] |
| > 3130 | 1000 to 50000 | 1000 to 50000 | CC(C)c1c(-c2cnc3ccnn3c2)[nH]c2ccc(C3CCN(C(=O)[C@@H]4NCC[C@H]4O)CC3)cc12 [Example 513, ((2R,3R)-3-hydroxypyrrolidin-2-yl)(4-(3-isopropyl-2-(pyrazolo[1,5-a]pyrimidin-6-yl)-1H-indol-5-yl)piperidin-1-yl)methanone] |
| < 100 | < 100 | 1000 to 50000 | Cc1cc(-c2[nH]c3ccc(C4CCN(C(=O)CN(C)C)CC4)cc3c2C(C)C)nc2scnc12 [Example 543, 2-(dimethylamino)-1-(4-(3-isopropyl-2-(7-methylthiazolo[5,4-b]pyridin-5-yl)-1H-indol-5-yl)piperidin-1-yl)ethan-1-one] |
| 100 to 1000 | 100 to 1000 | 100 to 1000 | Cc1cc(-c2[nH]c3ccc(C4CCN(CC(=O)N(C)C)CC4)cc3c2C(C)C)cc2nccn12 [Example 354, 2-(4-(3-isopropyl-2-(5-methylimidazo[1,2-a]pyridin-7-yl)-1H-indol-5-yl)piperidin-1-yl)-N,N-dimethylacetamide] |
| 100 to 1000 | 100 to 1000 | 100 to 1000 | CNC(=O)CN1CCC(c2ccc3[nH]c(-c4cc(C)n5ccnc5c4)c(C(C)C)c3c2)CC1 [Example 355, 2-(4-(3-isopropyl-2-(5-methylimidazo[1,2-a]pyridin-7-yl)-1H-indol-5-yl)piperidin-1-yl)-N-methylacetamide] |
| < 100 | < 100 | 1000 to 50000 | Cc1c(-c2[nH]c3ccc(C4CCN(CC(=O)N(C)C)CC4)cc3c2C(C)C)ccc2c1cnn2C [Example 382, 2-(4-(2-(1,4-dimethyl-1H-indazol-5-yl)-3-isopropyl-1H-indol-5-yl)piperidin-1-yl)-N,N-dimethylacetamide] |
| < 100 | < 100 | < 100 | CC(C)c1c(-c2ccnc3[nH]ncc23)[nH]c2cc(F)c(C3CCN(CC4CCNC4)CC3)cc12 (stereo not drawn) [Example 853, 4-(6-fluoro-3-isopropyl-5-(1-(pyrrolidin-3-ylmethyl)piperidin-4-yl)-1H-indol-2-yl)-1H-pyrazolo[3,4-b]pyridine] |
| 100 to 1000 | < 100 | 1000 to 50000 | Cc1nc2cc(-c3[nH]c4ccc(C5CCN(CC(=O)N(C)C)CC5)cc4c3C(C)C)ccn2n1 [Example 326, 2-(4-(3-isopropyl-2-(2-methyl-[1,2,4]triazolo[1,5-a]pyridin-7-yl)-1H-indol-5-yl)piperidin-1-yl)-N,N-dimethylacetamide] |
| < 100 | < 100 | 1000 to 50000 | CC(C)c1c(-c2ccc(C#N)c3ncccc23)[nH]c2ccc(C3CCN(CCS(C)(=O)=O)CC3)cc12 [Example 796, 5-(3-isopropyl-5-(1-(2-(methylsulfonyl)ethyl)piperidin-4-yl)-1H-indol-2-yl)quinoline-8-carbonitrile] |
| < 100 | < 100 | 1000 to 50000 | CC(C)c1c(-c2cn(C)c3ncccc23)[nH]c2ccc(C3CCN(Cc4ncn(C)n4)CC3)cc12 [Example 878, 3-(3-isopropyl-5-(1-((1-methyl-1H-1,2,4-triazol-3-yl)methyl)piperidin-4-yl)-1H-indol-2-yl)-1-methyl-1H-pyrrolo[2,3-b]pyridine] |
| < 100 | < 100 | < 100 | CC(C)c1c(-c2ccc3nccn3c2)[nH]c2ccc(C3CCN(Cc4c[nH]cn4)CC3)cc12 [Example 940, 6-(5-(1-((1H-imidazol-4-yl)methyl)piperidin-4-yl)-3-isopropyl-1H-indol-2-yl)imidazo[1,2-a]pyridine] |
| 100 to 1000 | < 100 | 1000 to 50000 | CNC(=O)CN1CCC(c2ccc3[nH]c(-c4cc(C)c5nccnc5c4)c(C(C)C)c3c2)CC1 [Example 394, 2-(4-(3-isopropyl-2-(8-methylquinoxalin-6-yl)-1H-indol-5-yl)piperidin-1-yl)-N-methylacetamide] |
